Literature values, collected in patent US20040049352A1, “Designing modulators for glycosyltransferases” (priority 2000, published 2004).

Biological target: T1, GlcNAc-T II (Rattus norvegicus, UniProt Q09326)
T1 sequence (Q09326 1-442): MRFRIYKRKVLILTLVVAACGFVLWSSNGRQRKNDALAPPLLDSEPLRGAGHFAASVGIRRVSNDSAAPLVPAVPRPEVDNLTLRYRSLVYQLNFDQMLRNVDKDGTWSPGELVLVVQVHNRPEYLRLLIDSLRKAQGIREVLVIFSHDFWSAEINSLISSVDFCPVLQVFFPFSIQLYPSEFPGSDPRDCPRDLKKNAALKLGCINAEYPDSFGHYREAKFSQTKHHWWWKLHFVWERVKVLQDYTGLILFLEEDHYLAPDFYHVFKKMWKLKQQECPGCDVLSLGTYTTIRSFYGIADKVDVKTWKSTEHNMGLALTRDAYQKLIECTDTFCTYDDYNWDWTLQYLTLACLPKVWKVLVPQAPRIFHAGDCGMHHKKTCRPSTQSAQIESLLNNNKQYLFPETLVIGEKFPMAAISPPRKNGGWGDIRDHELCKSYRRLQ
Details: inhibition studies

SMILES	binding to the enzyme GlcNAc-T II
CC(=O)N[C@@H]1[C@@H](O)[C@H](O)[C@@H](CO)O[C@@H]1O [GlcNAc, 2-acetamido-2-deoxy-α-D-glucopyranose]	neither GlcNAc nor GlcNAc-α-l-phosphate binds
CC(=O)N[C@H]1[C@@H](OP(=O)(O)OP(=O)(O)OC[C@H]2O[C@@H](n3ccc(=O)[nH]c3=O)[C@H](O)[C@@H]2O)O[C@H](CO)[C@H](O)[C@@H]1O [UDP-GalNAc]	do bind
CC(=O)N[C@H]1[C@@H](OP(=O)(O)O)O[C@H](CO)[C@@H](O)[C@@H]1O [GlcNAc-α-l-phosphate]	neither GlcNAc nor GlcNAc-α-l-phosphate binds
